Assay [1] is described as follows: Selectivity index measured as the ratio of IC50 for rat liver DHFR to IC50 for Toxoplasma gondii DHFR.
The next assay concerns the target T1, Dihydrofolate reductase (Pneumocystis carinii, UniProt P16184).
T1 sequence (P16184 whole entry): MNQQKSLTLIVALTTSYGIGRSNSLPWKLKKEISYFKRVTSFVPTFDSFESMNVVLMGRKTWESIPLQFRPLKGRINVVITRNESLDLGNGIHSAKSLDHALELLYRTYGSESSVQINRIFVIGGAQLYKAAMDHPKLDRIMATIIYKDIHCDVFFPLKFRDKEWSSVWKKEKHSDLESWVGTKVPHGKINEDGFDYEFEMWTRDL

Assay [2] addresses T2, Bifunctional dihydrofolate reductase-thymidylate synthase (Toxoplasma gondii, UniProt Q07422).
T2 sequence (Q07422 whole entry): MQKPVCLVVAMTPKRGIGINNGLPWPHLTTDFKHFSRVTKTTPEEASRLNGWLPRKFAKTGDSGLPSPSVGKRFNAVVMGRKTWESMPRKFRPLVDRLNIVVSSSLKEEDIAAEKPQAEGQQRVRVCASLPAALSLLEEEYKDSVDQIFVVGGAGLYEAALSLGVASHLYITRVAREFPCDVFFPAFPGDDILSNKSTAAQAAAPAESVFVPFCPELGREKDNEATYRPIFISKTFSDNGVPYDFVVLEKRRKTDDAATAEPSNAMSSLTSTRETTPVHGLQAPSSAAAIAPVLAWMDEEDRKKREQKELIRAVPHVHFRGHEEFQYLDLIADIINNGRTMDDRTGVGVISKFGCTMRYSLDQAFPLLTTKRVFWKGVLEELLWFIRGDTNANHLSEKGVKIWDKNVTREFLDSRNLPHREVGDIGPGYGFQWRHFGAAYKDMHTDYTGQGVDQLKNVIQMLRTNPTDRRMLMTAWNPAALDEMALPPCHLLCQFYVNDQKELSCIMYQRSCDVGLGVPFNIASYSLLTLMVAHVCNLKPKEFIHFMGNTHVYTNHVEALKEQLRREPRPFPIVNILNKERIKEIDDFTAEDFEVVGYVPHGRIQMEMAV
Nature of the assay: Inhibitory concentration against Toxoplasma gondii dihydrofolate reductase.

The next assay relates to Pneumocystis carinii. Nature of the assay: Concentration required to inhibit uptake of [3H]4-aminobenozoic acid over 24 hr against Pneumocystis carinii microorganisms extracted from immunocompromized rats. Conditions: Rattus norvegicus.

`CCc1nc(N)nc(N)c1-c1ccc(Cl)c(/N=N/N(C)CC2OCCO2)c1`: the Selectivity index in assay [1] came to 28. For the same molecule, the IC50 on Dihydrofolate reductase was 0.57 µM.
`CCc1nc(N)nc(N)c1-c1ccc(Cl)c(/N=N/N(C)Cc2ccccc2)c1`: on Dihydrofolate reductase, the IC50 is 0.57 µM.
Regarding `CCc1nc(N)nc(N)c1-c1ccc(Cl)c(/N=N/N2CCOCC2)c1`, the IC50 came to 0.19 µM in assay [2] and 49.7 µg/mL in the assay on Pneumocystis carinii.
`CCc1nc(N)nc(N)c1-c1ccc(Cl)c(/N=N/N(C)CC)c1` [listing 1 of 2 here] displayed an IC50 at Dihydrofolate reductase of 6.6 µM.
With `CCc1nc(N)nc(N)c1-c1ccc(Cl)c(/N=N/N2CCCCC2)c1`, on Dihydrofolate reductase, the IC50 stood at 40.4 µM.
Regarding `CCc1nc(N)nc(N)c1-c1ccc(Cl)c(/N=N/N(C)C)c1` [listing 1 of 2 here], the IC50 in assay [2] was 0.31 µM; against Dihydrofolate reductase it was 2.8 µM.
`N=C(N)c1ccc(OCCCCCOc2ccc(C(=N)N)cc2)cc1` showed an IC50 in the assay with Pneumocystis carinii of 2.5 µM.
For the molecule `CCCN(CCO)/N=N/c1cc(-c2c(N)nc(N)nc2CC)ccc1Cl`, at Dihydrofolate reductase, inhibition was half-maximal at 2.5 µM (IC50).
With `CCc1nc(N)nc(N)c1-c1ccc(Cl)c([N+](=O)[O-])c1`, in assay [2], the IC50 is 0.013 µM. Further, the Selectivity index in assay [1] is 1.1.
In turn, `CCc1nc(N)nc(N)c1-c1ccc(Cl)c(/N=N/N(C)CC)c1` [listing 2 of 2 here] yielded an IC50 against Dihydrofolate reductase of 14.1 µM.
Consider `CCc1nc(N)nc(N)c1-c1ccc(Cl)c([N+]#N)c1`, for which it took 0.023 µM to reach half-maximal inhibition in assay [2] (IC50).
`CCc1nc(N)nc(N)c1-c1ccc(Cl)c(/N=N/N(C)C)c1` [listing 2 of 2 here] displayed a concentration for half-maximal inhibition (IC50) on Dihydrofolate reductase of 6 µM.
Regarding `CCc1nc(N)nc(N)c1-c1ccc(Cl)c(N=[N+]=[N-])c1`, the IC50 in assay [2] came to 0.69 µM; against Dihydrofolate reductase, 1.33 µM. The Selectivity index in assay [1] amounted to 0.5.
For the molecule `CCc1nc(N)nc(N)c1-c1ccc(Cl)c(/N=N/N(CCO)CCO)c1`, the IC50 at Dihydrofolate reductase was 0.44 µM; in the assay with Pneumocystis carinii, 46.6 µg/mL.
For `CCc1nc(N)nc(N)c1-c1ccc(Cl)c(/N=N/N(CCO)Cc2ccccc2)c1` the same measures were 0.26 µM and 11.1 µg/mL.
For `CCc1nc(N)nc(N)c1-c1ccc(Cl)c(/N=C/N(C)C)c1`, the IC50 in assay [2] worked out at 1.6 µM; against Dihydrofolate reductase, 10.6 µM.
In assay [2], `CCc1nc(N)nc(N)c1-c1ccc(N(C)Cc2ccccc2)c([N+](=O)[O-])c1` yielded an IC50 of 0.091 µM.
`CCc1nc(N)nc(N)c1-c1ccc(Cl)c(/N=N/N2CCC(O)CC2)c1`: the IC50 against Dihydrofolate reductase was determined as 3.3 µM.
The same measure, in the same setting: under `CCCN(C)/N=N/c1cc(-c2c(N)nc(N)nc2CC)ccc1Cl` [listing 1 of 2 here] stands 10.2 µM.
`CCc1nc(N)nc(N)c1-c1ccc(Cl)c(/N=N/N(CCOC(C)=O)Cc2ccccc2)c1` yielded an IC50 in the assay on Pneumocystis carinii of 43.9 µg/mL.
With `CCc1nc(N)nc(N)c1-c1ccc(Cl)c(/N=N/N2CCN(C)CC2)c1`, at Dihydrofolate reductase, inhibition was half-maximal at 8.5 µM (IC50).
In the case of `CCc1nc(N)nc(N)c1-c1ccc(Cl)c(/N=N/N(CCO)C(C)(C)C)c1`, at Dihydrofolate reductase, 4.9 µM corresponded to half-maximal inhibition (IC50).
With `CCc1nc(N)nc(N)c1-c1ccc(Cl)c(/N=N/N(C(C)(C)C)C(C)(C)C)c1`, on Dihydrofolate reductase, the IC50 is more than 11 µM.
Turning to `CCc1nc(N)nc(N)c1-c1ccc(Cl)c(/N=N/N(CCOC)CCOC)c1`, the IC50 was 8.8 µM in assay [2] and 30.5 µg/mL with Pneumocystis carinii. In assay [1], the Selectivity index is 3.
For the molecule `CCc1nc(N)nc(N)c1-c1ccc(Cl)c(/N=N/N(CC)CCO)c1`, the IC50 against Dihydrofolate reductase came to 11.5 µM.
In turn, `CCc1nc(N)nc(N)c1-c1ccc(Cl)c(/N=N/N(C)CCO)c1` displayed an IC50 at Dihydrofolate reductase of 3.5 µM.
Same read-out and setting: the same measure for `CCc1nc(N)nc(N)c1-c1ccc(Cl)c(/N=N/N2CCc3ccccc3C2)c1`: 5 µM; for `CCCN(C)/N=N/c1cc(-c2c(N)nc(N)nc2CC)ccc1Cl` [listing 2 of 2 here]: 7.6 µM; for `CCc1nc(N)nc(N)c1-c1ccc(Cl)c(/N=N/N2CCCC2)c1`: more than 11 µM.

The IC50 is the concentration that inhibits the measured activity by half. Read a high IC50 as weaker potency.

The values above are taken from ChEMBL document CHEMBL1130062 (J Med Chem, 1997).
